Source: patent US20250136553A1, “ACYLSULFONAMIDE KAT6A INHIBITORS” (Olema Pharmaceuticals, Inc., priority 2023, published 2025)

Each molecule was assayed against human-KAT6A (MYST domain 507-778 aa) (Homo sapiens (Human), UniProt Q92794) (assay: KAT6A biochemical assay (TR-FRET)). Conditions: @ 1 μM; reported where IC50 could not be determined; read-out: Percent inhibition at specific concentration (KAT6A).
Excerpt: TR-FRET based methods were used for assaying compounds of the present invention for KAT6A enzyme inhibitory activity. TR-FRET is a homogeneous proximity assay where Europium-labelled anti-acetyl lysine antibody binds to the acetylated substrate labelled with biotin, which in turn binds to streptavidin-labelled APC fluorescence acceptor. Europium can transfer energy to APC in the complex and the interaction of two dye-labelled binding partners is detected by the energy transfer between a donor and an acceptor dye and the subsequent light emission by the acceptor dye. KAT6A transfer an acetyl group from acetyl CoA to lysine amino acids of histones/target proteins. […] The selected compound of the present invention and enzyme are incubated for 30 min on plate shaker at 300 rpm at 25° C. Next, 5 μL of substrate mix containing histone H4 peptide and acetyl-CoA in assay buffer is added to the plate. The final concentrations of H4 peptide and acetyl-CoA are 200 nM and 600 nM, respectively. Following 60 min reaction at 25° C. on plate shaker at 300 rpm, 5 μL of detection mix containing Europium-labelled anti-acetyl antibody and streptavidin-APC is added to the reaction wells. The plate is further incubated at 25° C. on shaker at 300 rpm and is read in TR-FRET mode (Ex:340 nm; Em: 615 nm and 665 nm) on a plate reader to achieve ˜5-7-fold activity. The percent inhibition was calculated from the ratio of the fluorescence (FL) intensities [(F665/F615)×10000) using the formula […]. IC50 values of the compounds were determined by fitting the dose-response data to sigmoidal curve fitting equation using Graph pad prism software V9.

human-KAT6A (MYST domain 507-778 aa), sequence (Q92794 507-778): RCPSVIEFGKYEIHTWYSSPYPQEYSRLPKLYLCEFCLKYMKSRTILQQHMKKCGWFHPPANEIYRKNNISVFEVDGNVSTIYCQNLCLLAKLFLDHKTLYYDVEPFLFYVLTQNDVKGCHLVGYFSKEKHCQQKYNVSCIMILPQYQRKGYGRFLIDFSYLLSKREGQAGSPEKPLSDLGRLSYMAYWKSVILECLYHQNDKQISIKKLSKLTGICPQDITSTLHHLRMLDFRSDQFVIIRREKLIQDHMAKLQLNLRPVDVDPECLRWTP

| SMILES | inhibition at 1 µM |
| --- | --- |
| COc1cccc(OC)c1S(=O)(=O)NC(=O)c1ccc(Cn2cccn2)c(OC)c1OC [Compound 41, 4-((1H-pyrazol-1-yl)methyl)-N-((2,6-dimethoxyphenyl)sulfonyl)-2,3-dimethoxybenzamide] | 35% |

Same assay, conditions: TR-FRET; histone H4 peptide 200 nM, acetyl-CoA 600 nM; read-out: KAT6A IC50

| SMILES | IC50 |
| --- | --- |
| CCc1ccc(OC)c(S(=O)(=O)NC(=O)c2ccc(Cn3cccn3)c(OC)c2)c1 [Compound 30, 4-((1H-pyrazol-1-yl)methyl)-N-((5-ethyl-2-methoxyphenyl)sulfonyl)-3-methoxybenzamide] | 11 nM |
| COc1cc(C(=O)NS(=O)(=O)c2ccc(C(F)(F)F)cc2OC)ccc1Cn1cccn1 [Compound 31, 4-((1H-pyrazol-1-yl)methyl)-3-methoxy-N-((2-methoxy-4-(trifluoromethyl)phenyl)sulfonyl)benzamide] | 44 nM |
| COc1cc(C(=O)NS(=O)(=O)c2cc(C(F)(F)F)ccc2OC)ccc1Cn1cccn1 [Compound 32, 4-((1H-pyrazol-1-yl)methyl)-3-methoxy-N-((2-methoxy-5-(trifluoromethyl)phenyl)sulfonyl)benzamide] | 16 nM |
| COc1cccc(OC)c1S(=O)(=O)NC(=O)c1ccc(Cn2cccn2)c(OC(F)(F)F)c1 [Compound 33, 4-((1H-pyrazol-1-yl)methyl)-N-((2,6-dimethoxyphenyl)sulfonyl)-3-(trifluoromethoxy)benzamide] | 10 nM |
| COc1cccc(OC)c1S(=O)(=O)NC(=O)c1ccc(Cn2cccn2)c(C)c1 [Compound 34, 4-((1H-pyrazol-1-yl)methyl)-N-((2,6-dimethoxyphenyl)sulfonyl)-3-methylbenzamide] | 36 nM |
| COc1cccc(OC)c1S(=O)(=O)NC(=O)c1ccc(Cn2cccn2)c(C(F)(F)F)c1 [Compound 35] | 30 nM |
| COc1cc(C(=O)NS(=O)(=O)c2c(OC)cccc2-n2cccn2)ccc1Cn1cccn1 [Compound 36, 4-((1H-pyrazol-1-yl)methyl)-3-methoxy-N-((2-methoxy-6-(1H-pyrazol-1-yl)phenyl)sulfonyl)benzamide] | 198 nM |
| COc1cccc(OC)c1S(=O)(=O)NC(=O)c1ccc(Cn2cccn2)c(OC(F)F)c1 [Compound 37, 4-((1H-pyrazol-1-yl)methyl)-3-(difluoromethoxy)-N-((2,6-dimethoxyphenyl)sulfonyl)benzamide] | 10 nM |
| COc1cc(C(=O)NS(=O)(=O)c2cc(O)ccc2OC)ccc1Cn1cccn1 [Compound 39, 4-((1H-pyrazol-1-yl)methyl)-N-((5-hydroxy-2-methoxyphenyl)sulfonyl)-3-methoxybenzamide] | 24 nM |
| COc1cccc(OC)c1S(=O)(=O)NC(=O)c1ccc(Cn2cccn2)c(C2CC2)c1F [Compound 40, 4-((1H-pyrazol-1-yl)methyl)-3-cyclopropyl-N-((2,6-dimethoxyphenyl)sulfonyl)-2-fluorobenzamide] | 15 nM |
| COc1ccc(S(=O)(=O)NC(=O)c2ccc(Cn3cccn3)c(OC)c2)c(OC)c1 [Compound 42, 4-((1H-pyrazol-1-yl)methyl)-N-((2,4-dimethoxyphenyl)sulfonyl)-3-methoxybenzamide] | 8 nM |
| COc1cc(OC)c(S(=O)(=O)NC(=O)c2ccc(Cn3cccn3)c(OC)c2)cc1F [Compound 43, 4-((1H-pyrazol-1-yl)methyl)-N-((5-fluoro-2,4-dimethoxyphenyl)sulfonyl)-3-methoxybenzamide] | 18 nM |
| COc1cc(OC)c(S(=O)(=O)NC(=O)c2ccc(Cn3cccn3)c(OC)c2)cc1Cl [Compound 44, 4-((1H-pyrazol-1-yl)methyl)-N-((5-chloro-2,4-dimethoxyphenyl)sulfonyl)-3-methoxybenzamide] | 9 nM |
| COc1cc(OC)c(S(=O)(=O)NC(=O)c2ccc(Cn3cccn3)c(OC)c2)cc1Br [Compound 45, N-(5-bromo-2,4-dimethoxy-phenyl)sulfonyl-3-methoxy-4-(pyrazol-1-ylmethyl)benzamide] | 10 nM |
| COc1cc(C(=O)NS(=O)(=O)c2c(OC)ccc(Cl)c2OC)ccc1Cn1cccn1 [Compound 46, 4-((1H-pyrazol-1-yl)methyl)-N-((3-chloro-2,6-dimethoxyphenyl)sulfonyl)-3-methoxybenzamide] | 12 nM |
| COc1cc(OC)c(S(=O)(=O)NC(=O)c2ccc(Cn3cccn3)c(OC)c2)c(OC)c1 [Compound 47, 4-((1H-pyrazol-1-yl)methyl)-3-methoxy-N-((2,4,6-trimethoxyphenyl)sulfonyl)benzamide] | 9 nM |
| COc1cc(C(=O)NS(=O)(=O)c2c(OC)cccc2OC)c(OC)cc1Cn1cccn1 [Compound 48, 4-((1H-pyrazol-1-yl)methyl)-N-((2,6-dimethoxyphenyl)sulfonyl)-2,5-dimethoxybenzamide] | 51 nM |
| COc1cccc(OC)c1S(=O)(=O)NC(=O)c1ccc(Cn2cccn2)c(Br)c1F [Compound 49, 4-((1H-pyrazol-1-yl)methyl)-3-bromo-N-((2,6-dimethoxyphenyl)sulfonyl)-2-fluorobenzamide] | 8 nM |
| COc1cc(C(=O)NS(=O)(=O)c2c(OC)cccc2OC)ccc1COc1ncccn1 [Compound 50, N-((2,6-dimethoxyphenyl)sulfonyl)-3-methoxy-4-((pyrimidin-2-yloxy)methyl)benzamide] | 96 nM |
| COc1cc(C(=O)NS(=O)(=O)c2ccccc2OC(F)F)ccc1Cn1cccn1 [Compound 51, 4-((1H-pyrazol-1-yl)methyl)-N-((2-(difluoromethoxy)phenyl)sulfonyl)-3-methoxybenzamide] | 51 nM |
| COc1cc(C(=O)NS(=O)(=O)c2c(OC)cccc2OC2CC2)ccc1Cn1cccn1 [Compound 52, 4-((1H-pyrazol-1-yl)methyl)-N-((2-cyclopropoxy-6-methoxyphenyl)sulfonyl)-3-methoxybenzamide] | 9 nM |
| COc1cc(C(=O)NS(=O)(=O)c2ccccc2OCc2ccccn2)ccc1Cn1cccn1 [Compound 53, 4-((1H-pyrazol-1-yl)methyl)-3-methoxy-N-((2-(pyridin-2-ylmethoxy)phenyl)sulfonyl)benzamide] | 31 nM |
| COc1cc(C(=O)NS(=O)(=O)c2cc(C(C)(C)O)ccc2OC)ccc1Cn1cccn1 [Compound 54, 4-((1H-pyrazol-1-yl)methyl)-N-((5-(2-hydroxypropan-2-yl)-2-methoxyphenyl)sulfonyl)-3-methoxybenzamide] | 3 nM |
| COc1cc(C(=O)NS(=O)(=O)c2c(OC)cccc2OC(C)C)ccc1Cn1cccn1 [Compound 55, 4-((1H-pyrazol-1-yl)methyl)-N-((2-isopropoxy-6-methoxyphenyl)sulfonyl)-3-methoxybenzamide] | 11 nM |
| COc1cc(C(=O)NS(=O)(=O)c2c(OC)ccc3c2CCCC3)ccc1Cn1cccn1 [Compound 57, 4-((1H-pyrazol-1-yl)methyl)-3-methoxy-N-((2-methoxy-5,6,7,8-tetrahydronaphthalen-1-yl)sulfonyl)benzamide] | 11 nM |
| COc1cc(C(=O)NS(=O)(=O)c2c(OC)cccc2OC)ccc1COc1nccs1 [Compound 58, N-((2,6-dimethoxyphenyl)sulfonyl)-3-methoxy-4-((thiazol-2-yloxy)methyl)benzamide] | 177 nM |
| COc1cc(C(=O)NS(=O)(=O)c2c(OC)cccc2OC)ccc1Oc1nccs1 [Compound 59, N-((2,6-dimethoxyphenyl)sulfonyl)-3-methoxy-4-(thiazol-2-yloxy)benzamide] | 33 nM |
